The record followed here is patent publication US20230220021A1, “CYCLIC PEPTIDE INHIBITORS OF PSD-95 AND USES THEREOF” (University of Copenhagen, priority 2020, published 2023).

Where two headings read alike, the source gives them in different places. Where a SMILES comes first, the peptide text is derived from it. [ ]: non-standard residue; d: D form.

This assay deals with T1, PSD-95-PDZ2 (Homo sapiens, UniProt P78352).
T1 construct: 7xHis (N); made in house; host or cells: Escherichia coli B21 pLys (for the mutants, 'as previously described')
In words: Fluorescence polarization (FP) competition assay against cyclic nNOS TAMRA probe. It is filed as binding. As to conditions: for Ki: cyclic nNOS TAMRA probe, mean of triplicates, N.B. = not binding; for fold improved binding affinity: N-methylation; for Relative Ki (Ki mut/Ki WT): FP inhibition constant normalized to WT value.

T1 sequence (P78352 160-246 limits assumed): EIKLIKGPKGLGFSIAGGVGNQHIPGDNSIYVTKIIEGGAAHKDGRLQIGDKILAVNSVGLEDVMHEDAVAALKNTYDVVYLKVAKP

For “80 (THLEXTFTGDGTPKTIRVTQPGQ; cyclized peptide; (5)..(5) X is AlloT; (21)..(21) is D-AA) [compound 80]”, the Ki entry (FP competition) was “N.B”.

In the case of “85 (TXLETTFTGDGTPKTIRVTQPGQ; cyclized peptide; (2)..(2) X is N-Me-H; (21)..(21) is D-AA) [compound 85]”, the Ki entry (FP competition) is given as “N.B”. For the compound “86 (THXETTFTGDGTPKTIRVTQPGQ; cyclized peptide; (3)..(3) X is N-Me-L; (21)..(21) is D-AA) [compound 86]”, the Ki entry (FP competition) is reported as “N.B”. For the compound “87 (THLXTTFTGDGTPKTIRVTQPGQ; cyclized peptide; (4)..(4) X is N-Me-E; (21)..(21) is D-AA) [compound 87]”, the Ki result (FP competition) is reported as “N.B”. The same measure, in the same setting: the same measure for “90 (THLETTXTGDGTPKTIRVTQPGQ; cyclized peptide; (7)..(7) X is N-Me-F; (21)..(21) is D-AA) [compound 90]”: “N.B”; for “104 (THLEXTFTGDGTPKTIRVTQPGQ; cyclized peptide; (5)..(5) X is pT; (21)..(21) is D-AA) [compound 104]”: “N.B”; for “105 (THLETXFTGDGTPKTIRVTQPGQ; cyclized peptide; (6)..(6) X is pT; (21)..(21) is D-AA) [compound 105]”: “N.B”. Turning to “108 (THLETTFTGDGTPKXIRVTQPGQ; cyclized peptide; (15)..(15) X is pT; (21)..(21) is D-AA) [compound 108]”, under “FP competition”, the Ki result is “N.B”. For `CC[C@H](C)[C@@H]1NC(=O)[C@H]([C@@H](C)O)NC(=O)[C@H](CCCCN)NC(=O)[C@@H]2CCCN2C(=O)[C@H]([C@@H](C)O)NC(=O)CNC(=O)[C@H](CC(=O)O)NC(=O)CNC(=O)[C@H]([C@@H](C)O)NC(=O)[C@H](Cc2ccccc2)NC(=O)[C@H]([C@@H](C)O)NC(=O)[C@H]([C@@H](C)O)NC(=O)[C@H](CCC(=O)O)NC(=O)[C@H](CC(C)C)NC(=O)[C@H](Cc2c[nH]cn2)NC(=O)[C@H]([C@@H](C)O)N(C)C(=O)[C@H](CCC(N)=O)NC(=O)CNC(=O)[C@H]2CCCN2C(=O)[C@H](CCC(N)=O)NC(=O)[C@H]([C@@H](C)O)NC(=O)[C@H](C(C)C)NC(=O)[C@H](CCCNC(=N)N)NC1=O` [SEQ ID NO: 84], under “FP competition, relative to unsubstituted cyclic peptide”, the “fold lowered (decreased) binding affinity of the cyclic peptide” value amounted to 5 fold. For the compound `CC[C@H](C)[C@@H]1NC(=O)[C@H]([C@@H](C)O)NC(=O)[C@H](CCCCN)N(C)C(=O)[C@@H]2CCCN2C(=O)[C@H]([C@@H](C)O)NC(=O)CNC(=O)[C@H](CC(=O)O)NC(=O)CNC(=O)[C@H]([C@@H](C)O)NC(=O)[C@H](Cc2ccccc2)NC(=O)[C@H]([C@@H](C)O)NC(=O)[C@H]([C@@H](C)O)NC(=O)[C@H](CCC(=O)O)NC(=O)[C@H](CC(C)C)NC(=O)[C@H](Cc2c[nH]cn2)NC(=O)[C@H]([C@@H](C)O)NC(=O)[C@H](CCC(N)=O)NC(=O)CNC(=O)[C@H]2CCCN2C(=O)[C@H](CCC(N)=O)NC(=O)[C@H]([C@@H](C)O)NC(=O)[C@H](C(C)C)NC(=O)[C@H](CCCNC(=N)N)NC1=O` [SEQ ID NO: 96], for the setting “FP competition”, the “fold improved binding affinity” value is on record as 2 fold. Further, the Ki (FP competition, read-out: Ki) turned out to be 500 ± 100 nM.

As to `CC[C@H](C)[C@@H]1NC(=O)[C@H]([C@@H](C)O)NC(=O)[C@H](CCCCN)NC(=O)[C@@H]2CCCN2C(=O)[C@H]([C@@H](C)O)NC(=O)CNC(=O)[C@H](CC(=O)O)NC(=O)CNC(=O)[C@H]([C@@H](C)O)NC(=O)[C@H](Cc2ccccc2)NC(=O)[C@H]([C@@H](C)O)NC(=O)[C@H]([C@@H](C)O)NC(=O)[C@H](CCC(=O)O)NC(=O)[C@H](CC(C)C)NC(=O)[C@H](Cc2c[nH]cn2)NC(=O)[C@H]([C@@H](C)O)NC(=O)[C@H](CCC(N)=O)NC(=O)CNC(=O)[C@H]2CCCN2C(=O)[C@H](CCC(N)=O)NC(=O)[C@H]([C@@H](C)O)N(C)C(=O)[C@H](C(C)C)NC(=O)[C@H](CCCNC(=N)N)NC1=O` [SEQ ID NO: 101], the “fold improved binding affinity” value (FP competition) was 2 fold. For the same compound, the Ki (FP competition, read-out: Ki) turned out to be 600 ± 100 nM. Turning to `CC[C@H](C)[C@@H]1NC(=O)[C@H]([C@@H](C)O)NC(=O)[C@H](CCCCN)NC(=O)[C@@H]2CCCN2C(=O)[C@H]([C@@H](C)O)NC(=O)CNC(=O)[C@H](CC(=O)O)NC(=O)CNC(=O)[C@H]([C@@H](C)O)NC(=O)[C@H](Cc2ccccc2)NC(=O)[C@H]([C@@H](C)O)NC(=O)[C@H]([C@@H](C)O)NC(=O)[C@H](CCC(=O)O)NC(=O)[C@H](CC(C)C)NC(=O)[C@H](Cc2c[nH]cn2)NC(=O)[C@H]([C@@H](C)O)NC(=O)[C@H](CCC(N)=O)NC(=O)CNC(=O)[C@H]2CCCN2C(=O)[C@H](CCC(N)=O)NC(=O)[C@H]([C@@H](C)O)NC(=O)[C@H](C(C)C)NC(=O)[C@H](CCCNC(=N)N)NC1=O` [SEQ ID NO: 433], the Ki (FP competition, read-out: Ki) was found to be 1500 ± 200 nM. Take `CC[C@H](C)[C@@H]1NC(=O)[C@H]([C@@H](C)O)NC(=O)[C@H](CCCCN)NC(=O)[C@@H]2CCCN2C(=O)[C@H]([C@@H](C)O)NC(=O)CNC(=O)[C@H](CC(=O)O)NC(=O)CNC(=O)[C@H](Cc2c[nH]c3ccccc23)NC(=O)[C@H](Cc2ccccc2)NC(=O)[C@H]([C@@H](C)O)NC(=O)[C@H]([C@@H](C)O)NC(=O)[C@H](CCC(=O)O)NC(=O)[C@H](CC(C)C)NC(=O)[C@H](Cc2c[nH]cn2)NC(=O)[C@H]([C@@H](C)O)NC(=O)[C@H](CCC(N)=O)NC(=O)CNC(=O)[C@H]2CCCN2C(=O)[C@H](CCC(N)=O)NC(=O)[C@H]([C@@H](C)O)NC(=O)[C@H](C(C)C)NC(=O)[C@H](CCCNC(=N)N)NC1=O` [compound 18] (cyclo(THLETTFWGDGTPKTIRVTQ[dP]GQ)): the “Relative Ki (Ki mut/Ki WT)” value came out at 0.48. Under “FP competition, read-out: Ki”, the Ki amounted to 720 nM.

`CC[C@H](C)[C@@H]1NC(=O)[C@H]([C@@H](C)O)NC(=O)[C@H](CCCCN)NC(=O)[C@@H]2CCCN2C(=O)[C@H]([C@@H](C)O)NC(=O)CNC(=O)[C@H](CC(=O)O)NC(=O)CNC(=O)[C@H](CC(=O)O)NC(=O)[C@H](Cc2ccccc2)NC(=O)[C@H]([C@@H](C)O)NC(=O)[C@H]([C@@H](C)O)NC(=O)[C@H](CCC(=O)O)NC(=O)[C@H](CC(C)C)NC(=O)[C@H](Cc2c[nH]cn2)NC(=O)[C@H]([C@@H](C)O)NC(=O)[C@H](CCC(N)=O)NC(=O)CNC(=O)[C@H]2CCCN2C(=O)[C@H](CCC(N)=O)NC(=O)[C@H]([C@@H](C)O)NC(=O)[C@H](C(C)C)NC(=O)[C@H](CCCNC(=N)N)NC1=O` [compound 19] (cyclo(THLETTFDGDGTPKTIRVTQ[dP]GQ)): the “Relative Ki (Ki mut/Ki WT)” value came out at 0.63. Further, the Ki (FP competition, read-out: Ki) was 950 nM. In the case of `CC[C@H](C)[C@@H]1NC(=O)[C@H]([C@@H](C)O)NC(=O)[C@H](CCCCN)NC(=O)[C@@H]2CCCN2C(=O)[C@H]([C@@H](C)O)NC(=O)CNC(=O)[C@H](CC(=O)O)NC(=O)CNC(=O)[C@H]([C@@H](C)O)NC(=O)[C@H](Cc2ccccc2)NC(=O)[C@H]([C@@H](C)O)NC(=O)[C@H]([C@@H](C)O)NC(=O)[C@H](CCC(=O)O)NC(=O)[C@H](CCCCN)NC(=O)[C@H](Cc2c[nH]cn2)NC(=O)[C@H]([C@@H](C)O)NC(=O)[C@H](CCC(N)=O)NC(=O)CNC(=O)[C@H]2CCCN2C(=O)[C@H](CCC(N)=O)NC(=O)[C@H]([C@@H](C)O)NC(=O)[C@H](C(C)C)NC(=O)[C@H](CCCNC(=N)N)NC1=O` [compound 22] (cyclo(THKETTFTGDGTPKTIRVTQ[dP]GQ)), the “Relative Ki (Ki mut/Ki WT)” value is 0.80. In the case of `CC[C@H](C)[C@@H]1NC(=O)[C@H]([C@@H](C)O)NC(=O)[C@H](CCCCN)NC(=O)[C@@H]2CCCN2C(=O)[C@H]([C@@H](C)O)NC(=O)CNC(=O)[C@H](CC(=O)O)NC(=O)CNC(=O)[C@H]([C@@H](C)O)NC(=O)[C@H](Cc2ccccc2)NC(=O)[C@H]([C@@H](C)O)NC(=O)[C@H]([C@@H](C)O)NC(=O)[C@H](CCC(=O)O)NC(=O)[C@H](CC(C)C)NC(=O)[C@H](CCC(=O)O)NC(=O)[C@H]([C@@H](C)O)NC(=O)[C@H](CCC(N)=O)NC(=O)CNC(=O)[C@H]2CCCN2C(=O)[C@H](CCC(N)=O)NC(=O)[C@H]([C@@H](C)O)NC(=O)[C@H](C(C)C)NC(=O)[C@H](CCCNC(=N)N)NC1=O` [compound 23] (cyclo(TELETTFTGDGTPKTIRVTQ[dP]GQ)), the “Relative Ki (Ki mut/Ki WT)” value is listed as 4.13. The Ki (FP competition, read-out: Ki) worked out at 6190 nM. For the compound `CC[C@H](C)[C@@H]1NC(=O)[C@H]([C@@H](C)O)NC(=O)[C@H](CCCCN)NC(=O)[C@@H]2CCCN2C(=O)[C@H]([C@@H](C)O)NC(=O)CNC(=O)[C@H](CC(=O)O)NC(=O)CNC(=O)[C@H]([C@@H](C)O)NC(=O)[C@H](Cc2ccccc2)NC(=O)[C@H]([C@@H](C)O)NC(=O)[C@H]([C@@H](C)O)NC(=O)[C@H](CCC(=O)O)NC(=O)[C@H](CC(C)C)NC(=O)[C@H](Cc2c[nH]cn2)NC(=O)CNC(=O)[C@H](CCC(N)=O)NC(=O)CNC(=O)[C@H]2CCCN2C(=O)[C@H](CCC(N)=O)NC(=O)[C@H]([C@@H](C)O)NC(=O)[C@H](C(C)C)NC(=O)[C@H](CCCNC(=N)N)NC1=O` [compound 25] (cyclo(GHLETTFTGDGTPKTIRVTQ[dP]GQ)), the “Relative Ki (Ki mut/Ki WT)” value stood at 3.00. Consider `CC[C@H](C)[C@@H]1NC(=O)[C@H]([C@@H](C)O)NC(=O)[C@H](CCCCN)NC(=O)[C@@H]2CCCN2C(=O)[C@H]([C@@H](C)O)NC(=O)CNC(=O)[C@H](CC(=O)O)NC(=O)CNC(=O)[C@H]([C@@H](C)O)NC(=O)[C@H](Cc2ccccc2)NC(=O)[C@H]([C@@H](C)O)NC(=O)[C@H]([C@@H](C)O)NC(=O)[C@H](CCC(=O)O)NC(=O)[C@H](CC(C)C)NC(=O)[C@H](Cc2ccc(O)cc2)NC(=O)[C@H]([C@@H](C)O)NC(=O)[C@H](CCC(N)=O)NC(=O)CNC(=O)[C@H]2CCCN2C(=O)[C@H](CCC(N)=O)NC(=O)[C@H]([C@@H](C)O)NC(=O)[C@H](C(C)C)NC(=O)[C@H](CCCNC(=N)N)NC1=O` [compound 26] (cyclo(TYLETTFTGDGTPKTIRVTQ[dP]GQ)), for which the “Relative Ki (Ki mut/Ki WT)” value amounted to 0.79.
